This is an account of results in patent US9040563B2, “Dual inhibitors of farnesyltransferase and geranylgeranyltransferase I” (H. Lee Moffitt Cancer Center and Research Institute, Inc., priority 2010, dated 2015).

Broadly, the IC50 is the concentration that gives 50% inhibition.

The subject of one assay is K-Ras prenylation. Put plainly: Western blot of oncogenic K-Ras processing/prenylation. The assay is classed as cell-based. The conditions noted are these: NIH-3T3 overexpressing oncogenic mutant K-Ras (FIG. 14) and MDA-MB-231 (FIG. 15). As for the experimental part: Testing has shown that the dual farnesyltransferase and geranygeranyltransferase-I inhibitors are effective on pancreatic tumors (90% of all cases), colonic tumors (30% of all cases), lung tumors (30% of all cases), and breast tumors (10% of all cases). NIH-3T3 cells that overexpress oncogenic mutant K-Ras, seen in FIG. 14, and MDA-MB-231 breast cancer cells with a naturally occurring K-Ras mutation, seen in FIG. 15, were treated with indicated concentrations of FGTI-2734, GGTI-2417 or FTI-2153. FGTI-2734 but not FTI-2153 or GGTI-2417 inhibited K-Ras prenylation. As expected, GGTI-2417 inhibited the processing of Rap1 but not HDJ-2 whereas FTI-2153 inhibited the processing of HDJ-2 but not Rap1.
Mammalian target of rapamycin (mTOR) is a serine/threonine phosphatidylinositol 3-kinase-related kinase responsible for cell growth, proliferation, cell survival, protein synthesis, and transcription. Alteration of the mTOR pathway, either through activation of oncogenes or inactivation of tumor suppressors, disrupts a signaling equilibrium and causes malignant transformation. Studies have shown that phosphorylated S6 (pS6) is related to mTOR pathway alterations, and is useful in determining PI3K-based cancer therapies (Aziz, et al. Phosphatidylinositol-3-Kinase as a Therapeutic Target in Melanoma. Clin Cancer Res. 2009, 15; 3029-3036). […]
A general note: A western blot detects proteins with antibodies after separation by electrophoresis.

Another assay concerns SW1990. Put plainly: MTT proliferation/viability assay. The assay is classed as cell-based, human. As for the experimental part: (§1) To determine if FGTI-2734 is more efficacious than FT or GGT-1 inhibitors, 10 human cancer pancreatic cell lines, 2 human breast cancer cell lines, 2 human lung cancer cell lines and one human prostate cancer cell line were treated with these inhibitors and determined their effects on the proliferation of these cells by MTT assay.

A further assay concerns Capan-2. The assay can be described thus: MTT proliferation/viability assay. The assay is classed as cell-based, human. As for the experimental part: as §1
The subject of a further assay is HPNE. The assay can be described thus: MTT proliferation/viability assay. The assay is classed as cell-based, human. The note with it: Homo sapiens, pancreas. As for the experimental part: as §1
The next assay has as its system ASPC-1. The assay can be described thus: MTT proliferation/viability assay. The assay is classed as cell-based, human. As for the experimental part: as §1
Another assay deals with HPNE-K-ras. Put plainly: MTT proliferation/viability assay. The conditions noted are these: Homo sapiens, pancreas. The assay is classed as cell-based, human. As for the experimental part: as §1
A further assay concerns Panc-1. The assay can be described thus: MTT proliferation/viability assay. The assay is classed as cell-based, human. The conditions noted are these: Homo sapiens, Panc-1, pancreas. As for the experimental part: as §1
In another assay the test system is DU-145. Put plainly: MTT proliferation/viability assay. The assay is classed as cell-based, human. The note with it: Homo sapiens, DU-145, DU-145, prostate. As for the experimental part:
as §1

The next assay concerns HPDE-C7. The assay can be described thus: MTT proliferation/viability assay. The assay is classed as cell-based, human. The note with it: Homo sapiens, HPDE-C7, pancreas. Here is the method: as §1
For the next assay, the system named is HPDE-C7-Kras. The assay can be described thus: MTT proliferation/viability assay. The assay is classed as cell-based, human. The conditions noted are these: pancreas. Here is the method: as §1
Another assay concerns A549. Put plainly: MTT proliferation/viability assay. The assay is classed as cell-based, human. The conditions noted are these: Homo sapiens, A549, lung. As for the experimental part: as §1
The next assay deals with BxPC3. Put plainly: MTT proliferation/viability assay. The assay is classed as cell-based, human. Here is the method: as §1
Another assay deals with MCF-7. The assay can be described thus: MTT proliferation/viability assay. The conditions noted are these: Homo sapiens, MCF7, MCF-7, breast. The assay is classed as cell-based, human. Here is the method: as §1
In the next assay the test system is MiaPaca. The assay can be described thus: MTT proliferation/viability assay. The assay is classed as cell-based, human. The note with it: Homo sapiens, MIA PaCa-2, pancreas. As for the experimental part: as §1
The next assay concerns p27Kip1. Put plainly: Western blot of p27Kip1 protein levels. The assay is classed as cell-based. The note with it: human cancer cells; FIG. 17. An excerpt: (§2) Mammalian target of rapamycin (mTOR) is a serine/threonine phosphatidylinositol 3-kinase-related kinase responsible for cell growth, proliferation, cell survival, protein synthesis, and transcription. Alteration of the mTOR pathway, either through activation of oncogenes or inactivation of tumor suppressors, disrupts a signaling equilibrium and causes malignant transformation. Studies have shown that phosphorylated S6 (pS6) is related to mTOR pathway alterations, and is useful in determining PI3K-based cancer therapies (Aziz, et al. Phosphatidylinositol-3-Kinase as a Therapeutic Target in Melanoma. Clin Cancer Res. 2009, 15; 3029-3036). Two breast adenocarcinoma and a pancreatic carcinoma cell line were treated with indicated concentrations of FGTI-2734, GGTI-2417 or FTI-2153. Protein extracts were run on a Western Blot using antibody against pS6 (ser240/244) (Cell Signaling Technology, Inc., Danvers, Mass.). […] Antibodies used were HDJ-2 (Lab Vision Corporation, Fremont, Calif.), Rapt (Santa Cruz Biotechnology, Santa Cruz, Calif.), K-Ras (EMD4 Biosciences (Calbiochem), Gibbstown, N.J.), P27 (BD Biosciences, San Jose, Calif.), Actin (Sigma-Aldrich, St. Louis, Mo.), Survivin (Santa Cruz Biotechnology, Santa Cruz, Calif.), and PARP (Roche, Indianapolis, Ind.).

For assay [1], the system named is mTOR signaling pathway (pS6). Put plainly: Western blot of pS6 (ser240/244), mTOR pathway signaling. The conditions noted are these: two breast adenocarcinoma and a pancreatic carcinoma cell line; FIG. 16. The assay is classed as cell-based, human.
Excerpt: as §2

For another assay, the target named is GGTase-I (Homo sapiens, UniProt P49354+P53609). Put plainly: In vitro GGTase-I inhibition: incorporation of [3H]GGPP into recombinant H-Ras-CVLL. The assay is classed as biochemical. The conditions noted are these: average of n = 3 unless stated, errors are standard deviations, read-out: GGTase-1 IC50.

For the molecule `Cn1cncc1CN(CCN(CC1CCCCC1)S(=O)(=O)c1ccccn1)c1ccc(C#N)cc1F` [21b, N-(2-((4-cyano-2-fluorophenyl)((1-methyl-1H-imidazol-5-yl)methyl)amino)ethyl)-N-(cyclohexylmethyl)pyridine-2-sulfonamide], the “inhibition of K-Ras prenylation” value in the assay on K-Ras prenylation is “inhibited”. Also, the 50% inhibitory concentration (IC50) in the assay on SW1990 (Homo sapiens, SW1990, SW1990, pancreas) worked out at 26.3 µM; in the assay with SW1990 (SW1990, pancreas, listed as FGTI-2734) it was 24.2 µM; in the assay on Capan-2 (Capan-2, pancreas, listed as FGTI-2734), 30 µM; with Capan-2 (Homo sapiens, Capan-2, Capan-2, pancreas), 24 µM; with HPNE, 13.5 ± 1.72 µM; in the assay on ASPC-1 (ASPC-1, pancreas, listed as FGTI-2734), 12.6 µM. In addition, the IC50 came out at 11.2 µM in the assay on ASPC-1 (Homo sapiens, ASPC1, ASPC-1, pancreas); 14.7 ± 0.89 µM in the assay on HPNE-K-ras; 20.5 ± 3.18 µM in the assay on Panc-1; 11.2 ± 6.09 µM in the assay on DU-145; 7.5 µM in the assay on HPDE-C7; 6.6 µM in the assay on HPDE-C7-Kras (Homo sapiens). For the same molecule, the IC50 in the assay on HPDE-C7-Kras (listed as FGTI-2734) is 8.7 µM; with A549, 13.2 ± 3.64 µM; with BxPC3 (BxPC3, pancreas, listed as FGTI-2734), 17.8 µM; in the assay on BxPC3 (Homo sapiens, BXPC-3, BxPC3, pancreas), 17.2 µM; in the assay on MCF-7, 4.42 ± 0.92 µM; with MiaPaca, 2.65 ± 0.3 µM. Besides, the IC50 at GGTase-I is 0.52 ± 0.09 µM. Besides, the p27Kip1 protein levels entry in the assay with p27Kip1 was “induces”. Further, the “mTOR pathway signaling, levels of pS6” value in [1] is given as “reducing the levels of pS6”.
